# Measurements taken from patent publication US11945822B2, “Pyrazolo-triazine and/or pyrazolo-pxrimidine derivatives as selective inhibitor of cyclin dependent kinase” (QURIENT CO., LTD., priority 2018, dated 2024).
# Molecular target: T1, CDK1/Cyclin B (Homo sapiens, UniProt P06493)
# T1 construct: purchased Invitrogen PR4768C
# Experiment: Enzymatic assay for CDK1 (FRET based LANCE Ultra kinase assay)
# Assay type: biochemical
# Details: read-out: CDK1 enzymatic activity (IC50 activity range)
# Method in brief: (§1)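 Each CDK complex ([…]) phosphorylated 68 nM ULight-MBP peptide with ATP at Km for 60 min at 23° C., against 8 compound doses (4-fold dilutions). EDTA/Eu-anti-phospho-MBP detection, 60 min, then TR-FRET emission at 615 and 665 nm.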
# T1 sequence (P06493 whole entry): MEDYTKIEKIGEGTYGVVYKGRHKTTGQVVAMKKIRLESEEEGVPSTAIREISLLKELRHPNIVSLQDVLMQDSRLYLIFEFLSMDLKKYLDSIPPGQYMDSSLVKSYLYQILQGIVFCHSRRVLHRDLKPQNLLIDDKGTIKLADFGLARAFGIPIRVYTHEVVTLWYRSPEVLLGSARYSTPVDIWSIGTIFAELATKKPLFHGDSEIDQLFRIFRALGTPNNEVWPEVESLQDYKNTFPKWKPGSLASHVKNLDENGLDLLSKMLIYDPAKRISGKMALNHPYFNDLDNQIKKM
# T1 sequence (P14635 whole entry partner): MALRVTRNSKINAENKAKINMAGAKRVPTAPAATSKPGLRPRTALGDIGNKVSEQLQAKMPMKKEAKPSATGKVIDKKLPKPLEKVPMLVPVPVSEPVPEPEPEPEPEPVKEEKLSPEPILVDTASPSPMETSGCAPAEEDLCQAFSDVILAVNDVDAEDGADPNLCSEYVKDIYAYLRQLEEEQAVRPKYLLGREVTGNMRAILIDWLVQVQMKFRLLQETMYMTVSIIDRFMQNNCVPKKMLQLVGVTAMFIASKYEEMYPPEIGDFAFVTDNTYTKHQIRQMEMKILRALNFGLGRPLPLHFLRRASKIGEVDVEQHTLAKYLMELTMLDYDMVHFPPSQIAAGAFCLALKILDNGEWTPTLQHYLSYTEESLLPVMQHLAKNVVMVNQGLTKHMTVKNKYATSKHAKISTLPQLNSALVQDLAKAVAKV
row,IC50 [nM],SMILES
1,> 1000,CC(C)c1cnn2c(NCc3ccccc3-c3cc4ccccc4[nH]3)nc(NCC3CNCCO3)nc12 (racemic) [Compound 274]

# Same assay, conditions: read-out: CDK1 enzymatic activity (IC50 range)
row,IC50 [nM],SMILES
1,> 1000,CC(C)c1cnn2c(NCc3ccccc3-c3cc4ccccc4[nH]3)nc(N3CCOC(CN)C3)nc12 (racemic) [Compound 130]
2,> 1000,CC(C)c1cnn2c(NCc3ccccc3-n3cccn3)nc(N3CCNCC3)nc12 [Compound 2]

# Molecular target: T2, CDK2/Cyclin A (Homo sapiens, UniProt P24941)
# T2 construct: purchased Invitrogen PV6290
# Experiment: Enzymatic assay for CDK2 (FRET based LANCE Ultra kinase assay)
# Assay type: biochemical
# Details: read-out: CDK2 enzymatic activity (IC50 activity range)
# Method in brief: as §1
row,IC50 [nM],SMILES
1,> 1000,CC(C)c1cnn2c(NCc3ccccc3-c3cc4ccccc4[nH]3)nc(NCC3CNCCO3)nc12 (racemic) [Compound 274]

# Same assay, conditions: read-out: CDK2 enzymatic activity (IC50 range)
row,IC50 [nM],SMILES
1,100 to 1000,CC(C)c1cnn2c(NCc3ccccc3-c3cc4ccccc4[nH]3)nc(N3CCOC(CN)C3)nc12 (racemic) [Compound 130]
2,100 to 1000,CC(C)c1cnn2c(NCc3ccccc3-n3cccn3)nc(N3CCNCC3)nc12 [Compound 2]

# Molecular target: T3, CDK5/p25 (Homo sapiens, UniProt Q00535)
# T3 construct: purchased Invitrogen PR8543B
# Experiment: Enzymatic assay for CDK5 (FRET based LANCE Ultra kinase assay)
# Assay type: biochemical
# Details: read-out: CDK5 enzymatic activity (IC50 activity range)
# Method in brief: as §1
# T3 sequence (Q00535 whole entry): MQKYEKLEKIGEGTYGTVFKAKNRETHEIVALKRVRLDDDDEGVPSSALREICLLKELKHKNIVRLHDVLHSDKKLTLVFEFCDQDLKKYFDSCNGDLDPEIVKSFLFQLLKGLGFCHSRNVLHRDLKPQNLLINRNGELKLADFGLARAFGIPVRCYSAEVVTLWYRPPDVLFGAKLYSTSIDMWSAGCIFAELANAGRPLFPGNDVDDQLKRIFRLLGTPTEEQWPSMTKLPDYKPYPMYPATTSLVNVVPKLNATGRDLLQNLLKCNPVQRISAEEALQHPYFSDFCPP
# T3 sequence (Q15078 99-307 partner limits assumed): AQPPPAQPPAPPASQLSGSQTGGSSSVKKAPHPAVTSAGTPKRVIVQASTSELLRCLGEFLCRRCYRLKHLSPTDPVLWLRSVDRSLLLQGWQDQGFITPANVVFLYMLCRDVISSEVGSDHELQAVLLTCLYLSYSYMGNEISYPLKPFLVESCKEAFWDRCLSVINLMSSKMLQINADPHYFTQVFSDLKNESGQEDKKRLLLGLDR
row,IC50 [nM],SMILES
1,100 to 1000,CC(C)c1cnn2c(NCc3ccccc3-c3cc4ccccc4[nH]3)nc(NCC3CNCCO3)nc12 (racemic) [Compound 274]

# Same assay, conditions: read-out: CDK5 enzymatic activity (IC50 range)
row,IC50 [nM],SMILES
1,100 to 1000,CC(C)c1cnn2c(NCc3ccccc3-c3cc4ccccc4[nH]3)nc(N3CCOC(CN)C3)nc12 (racemic) [Compound 130]
2,100 to 1000,CC(C)c1cnn2c(NCc3ccccc3-n3cccn3)nc(N3CCNCC3)nc12 [Compound 2]

# Molecular target: T4, CDK7/Cyclin H/MNAT1 (Homo sapiens, UniProt P50613)
# T4 construct: purchased Invitrogen PR6749B
# Experiment: Enzymatic assay for CDK7 (FRET based LANCE Ultra kinase assay)
# Assay type: biochemical
# Details: CDK1/CDK7
# Method in brief: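 LANCE Ultra TR-FRET kinase assay using a ULight-labeled peptide substrate and a Eu-labeled anti-phospho antibody, with ATP at its Km. Purified CDK/cyclin complex was added to compound after brief centrifugation.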
# T4 sequence (P50613 whole entry): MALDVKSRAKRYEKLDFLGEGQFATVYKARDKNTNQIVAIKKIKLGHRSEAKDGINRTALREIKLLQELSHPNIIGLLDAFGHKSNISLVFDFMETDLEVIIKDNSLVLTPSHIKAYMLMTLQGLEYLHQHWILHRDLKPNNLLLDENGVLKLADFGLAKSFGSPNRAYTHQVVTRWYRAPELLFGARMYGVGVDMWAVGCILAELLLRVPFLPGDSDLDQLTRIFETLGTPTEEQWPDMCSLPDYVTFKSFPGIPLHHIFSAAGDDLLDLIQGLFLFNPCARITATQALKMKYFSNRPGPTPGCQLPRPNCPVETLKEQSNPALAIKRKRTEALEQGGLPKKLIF
# T4 sequence (P51946 whole entry partner): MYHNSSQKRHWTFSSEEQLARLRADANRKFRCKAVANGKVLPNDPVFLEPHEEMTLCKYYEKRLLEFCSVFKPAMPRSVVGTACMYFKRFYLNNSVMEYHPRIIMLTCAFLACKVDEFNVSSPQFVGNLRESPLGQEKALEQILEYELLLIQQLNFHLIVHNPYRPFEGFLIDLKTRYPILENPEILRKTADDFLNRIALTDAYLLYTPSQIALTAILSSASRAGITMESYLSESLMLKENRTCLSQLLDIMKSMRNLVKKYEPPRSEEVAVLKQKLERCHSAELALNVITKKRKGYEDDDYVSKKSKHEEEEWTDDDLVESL
# T4 sequence (P51948 whole entry partner): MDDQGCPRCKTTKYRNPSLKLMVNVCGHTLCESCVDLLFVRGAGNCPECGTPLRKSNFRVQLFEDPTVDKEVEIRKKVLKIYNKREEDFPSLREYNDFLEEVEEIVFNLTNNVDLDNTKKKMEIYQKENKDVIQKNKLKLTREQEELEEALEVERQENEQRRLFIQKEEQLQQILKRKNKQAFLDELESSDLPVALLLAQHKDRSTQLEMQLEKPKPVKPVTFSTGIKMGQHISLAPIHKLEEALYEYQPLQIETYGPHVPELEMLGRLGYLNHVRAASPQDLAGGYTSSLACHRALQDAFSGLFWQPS
row,CDK1/CDK7: Selectivity of CDK7 inhibition over CDK1 inhibition,SMILES
1,A (A=greater than 200 fold),CC(C)c1cnn2c(NCc3ccccc3-c3cc4ccccc4[nH]3)nc(NCC3CNCCO3)nc12 (racemic) [Compound 274]

# Same assay, conditions: CDK2/CDK7
row,SMILES,CDK2/CDK7: Selectivity of CDK7 inhibition over CDK2 inhibition
1,CC(C)c1cnn2c(NCc3ccccc3-c3cc4ccccc4[nH]3)nc(NCC3CNCCO3)nc12 (racemic) [Compound 274],"B (B=less than 200 fold, but greater than 20 fold)"

# Same assay, conditions: CDK5/CDK7
row,SMILES,CDK5/CDK7: Selectivity of CDK7 inhibition over CDK5 inhibition
1,CC(C)c1cnn2c(NCc3ccccc3-c3cc4ccccc4[nH]3)nc(NCC3CNCCO3)nc12 (racemic) [Compound 274],"B (B=less than 200 fold, but greater than 20 fold)"

# Same assay, conditions: CDK7 over CDK1
row,CDK1/CDK7: Selectivity of CDK7 inhibition over CDK1 inhibition,SMILES
1,A (A=greater than 200 fold),CC(C)c1cnn2c(NCc3ccccc3-c3cc4ccccc4[nH]3)nc(N3CCOC(CN)C3)nc12 (racemic) [Compound 130]
2,A (A=greater than 200 fold),CC(C)c1cnn2c(NCc3ccccc3-n3cccn3)nc(N3CCNCC3)nc12 [Compound 2]

# Same assay, conditions: CDK7 over CDK2
row,SMILES,CDK2/CDK7: Selectivity of CDK7 inhibition over CDK2 inhibition
1,CC(C)c1cnn2c(NCc3ccccc3-c3cc4ccccc4[nH]3)nc(N3CCOC(CN)C3)nc12 (racemic) [Compound 130],"B (B=less than 200 fold, but greater than 20 fold)"
2,CC(C)c1cnn2c(NCc3ccccc3-n3cccn3)nc(N3CCNCC3)nc12 [Compound 2],"B (B=less than 200 fold, but greater than 20 fold)"

# Same assay, conditions: CDK7 over CDK5
row,SMILES,CDK5/CDK7: Selectivity of CDK7 inhibition over CDK5 inhibition
1,CC(C)c1cnn2c(NCc3ccccc3-c3cc4ccccc4[nH]3)nc(N3CCOC(CN)C3)nc12 (racemic) [Compound 130],"B (B=less than 200 fold, but greater than 20 fold)"
2,CC(C)c1cnn2c(NCc3ccccc3-n3cccn3)nc(N3CCNCC3)nc12 [Compound 2],"B (B=less than 200 fold, but greater than 20 fold)"

# Same assay, conditions: read-out: CDK7 enzymatic activity (IC50 activity range)
row,IC50 [nM],SMILES
1,< 100,CC(C)c1cnn2c(NCc3ccccc3-c3cc4ccccc4[nH]3)nc(NCC3CNCCO3)nc12 (racemic) [Compound 274]

# Same assay, conditions: read-out: CDK7 enzymatic activity (IC50 range)
row,IC50 [nM],SMILES
1,< 100,CC(C)c1cnn2c(NCc3ccccc3-c3cc4ccccc4[nH]3)nc(N3CCOC(CN)C3)nc12 (racemic) [Compound 130]
2,100 to 1000,CC(C)c1cnn2c(NCc3ccccc3-n3cccn3)nc(N3CCNCC3)nc12 [Compound 2]

# Test system: H460
# Experiment: Cellular H460 viability assay (CellTiter-Glo, 72 hours)
# Assay type: cell-based
# Details: Homo sapiens, NCI-H460
# Method in brief: (§2)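 72 h treatment, 37 °C, 5% CO2; DMSO ctrl, final <0.1%; CellTiter-Glo luminescence; n=2.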
row,IC50 [nM],SMILES
1,< 1000,CC(C)c1cnn2c(NCc3ccccc3-c3cc4ccccc4[nH]3)nc(N3CCOC(CN)C3)nc12 (racemic) [Compound 130]
2,< 1000,CC(C)c1cnn2c(NCc3ccccc3-c3cc4ccccc4[nH]3)nc(NCC3CNCCO3)nc12 (racemic) [Compound 274]
3,< 1000,CC(C)c1cnn2c(NCc3ccccc3-n3cccn3)nc(N3CCNCC3)nc12 [Compound 2]

# Test system: MV4-11
# Experiment: Cellular MV4-11 viability assay (CellTiter-Glo, 72 hours)
# Assay type: cell-based
# Details: Homo sapiens
# Method in brief: as §2
row,IC50 [nM],SMILES
1,< 1000,CC(C)c1cnn2c(NCc3ccccc3-c3cc4ccccc4[nH]3)nc(N3CCOC(CN)C3)nc12 (racemic) [Compound 130]
2,< 1000,CC(C)c1cnn2c(NCc3ccccc3-c3cc4ccccc4[nH]3)nc(NCC3CNCCO3)nc12 (racemic) [Compound 274]
3,< 1000,CC(C)c1cnn2c(NCc3ccccc3-n3cccn3)nc(N3CCNCC3)nc12 [Compound 2]

# Test system: MOLT-4
# Experiment: Cellular MOLT-4 viability assay (CellTiter-Glo, 72 hours)
# Assay type: cell-based
# Details: Homo sapiens, MOLT4 viability assay
# Method in brief: as §2
row,IC50 [nM],SMILES
1,1000 to 10000,CC(C)c1cnn2c(NCc3ccccc3-n3cccn3)nc(N3CCNCC3)nc12 [Compound 2]

# Test system: RPMI-8226
# Experiment: Cellular RPMI-8226 viability assay (CellTiter-Glo, 72 hours)
# Assay type: cell-based
# Details: Homo sapiens
# Method in brief: as §2
row,IC50 [nM],SMILES
1,< 1000,CC(C)c1cnn2c(NCc3ccccc3-c3cc4ccccc4[nH]3)nc(N3CCOC(CN)C3)nc12 (racemic) [Compound 130]
2,1000 to 10000,CC(C)c1cnn2c(NCc3ccccc3-c3cc4ccccc4[nH]3)nc(NCC3CNCCO3)nc12 (racemic) [Compound 274]

# Test system: A2780
# Experiment: Cellular A2780 viability assay (CellTiter-Glo, 72 hours)
# Assay type: cell-based
# Details: Homo sapiens
# Method in brief: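 Cells seeded at 1×10^4/well (MM.1S), 5×10^3 (OVCAR-3) or 1×10^3 (A2780), grown in RPMI-1640 with 10% FBS. After 24 h, compound added at 0.0015–10 uM, final DMSO below 0.1%, for 72 h at 37° C. Viability read by CellTiter-Glo luminescence in duplicate, with curve fitting.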
row,IC50 [nM],SMILES
1,≤ 1000,CC(C)c1cnn2c(NCc3ccccc3-c3cc4ccccc4[nH]3)nc(N3CCOC(CN)C3)nc12 (racemic) [Compound 130]
2,≤ 1000,CC(C)c1cnn2c(NCc3ccccc3-c3cc4ccccc4[nH]3)nc(NCC3CNCCO3)nc12 (racemic) [Compound 274]
3,≤ 1000,CC(C)c1cnn2c(NCc3ccccc3-n3cccn3)nc(N3CCNCC3)nc12 [Compound 2]
